# US20090030024A1, “THIAZOLES AS FUNGICIDES” (priority 2005, published 2009)
# Marks after values point to notes of the source that are not given here.
# Experiment: logP determination by retention times (calibration with alkan-2-ones)
# Conditions: not given
row,SMILES,chromatographic logP
1,"COc1cc(Nc2nccc(-c3sc(SC)nc3C)n2)cc(OC)c1OC [Example 316, 4-[4-methyl-2-(methylthio)-1,3-thiazol-5-yl]-N-(3,4,5-trimethoxyphenyl)pyrimidine-2-amine]",2.76
2,"Cc1nc(C2CCCCC2)sc1-c1ccnc(Nc2cccc([N+](=O)[O-])c2)n1 [Example 216, 4-(2-cyclohexyl-4-methyl-1,3-thiazol-5-yl)-N-(3-nitrophenyl)pyrimidine-2-amine]",4.63
3,"COCCOC(=O)Nc1ccc(Nc2nccc(-c3sc(C4CC4)nc3C)n2)cc1 [Example 71, 2-methoxyethyl-(4-{[4-(2-cyclopropyl-4-methyl-1,3-thiazol-5-yl)pyrimidin-2-yl]amino}phenyl)carbamate]",2.51
4,"COc1ccc(OC)c(Nc2nccc(-c3sc(C)nc3C)n2)c1 [Example 391, N-(2,5-dimethoxyphenyl)-4-(2,4-dimethyl-1,3-thiazol-5-yl)pyrimidine-2-amine]",3.03
5,"Cc1nc(C)c(-c2ccnc(Nc3cccc([N+](=O)[O-])c3)n2)s1 [Example 184, 4-(2,4-dimethyl-1,3-thiazol-5-yl)-N-(3-nitrophenyl)pyrimidine-2-amine]",2.61
6,"Cc1nc(C)c(-c2ccnc(Nc3cccc(C(F)(F)F)c3)n2)s1 [Example 188, 4-(2,4-dimethyl-1,3-thiazol-5-yl)-N-[3-(trifluoromethyl)phenyl]pyrimidine-2-amine]",3.3
7,"COCc1nc(C)c(-c2ccnc(Nc3cc(OC)c(OC)c(OC)c3)n2)s1 [Example 295, 4-[2-(methoxymethyl)-4-methyl-1,3-thiazol-5-yl]-N-(3,4,5-trimethoxyphenyl)pyrimidine-2-amine]",2.36
8,"CSc1nc(C)c(-c2ccnc(Nc3ccc(C(F)(F)F)cc3)n2)s1 [Example 317, 4-[4-methyl-2-(methylthio)-1,3-thiazol-5-yl]-N-[4-(trifluoromethyl)phenyl]pyrimidine-2-amine]",4.37
9,"Cc1nc(C(C)C)sc1-c1ccnc(Nc2ccc(F)c(F)c2)n1 [Example 401, N-(3,4-difluorophenyl)-4-(2-isopropyl-4-methyl-1,3-thiazol-5-yl)pyrimidine-2-amine]",3.95
10,"Cc1cc(Nc2nccc(-c3sc(C4CC4)nc3C)n2)ccc1F [Example 226, 4-(2-cyclopropyl-4-methyl-1,3-thiazol-5-yl)-N-(4-fluoro-3-methylphenyl)pyrimidine-2-amine]",3.71
11,"COCC(C)Nc1nc(C)c(-c2ccnc(Nc3ccc(O)cc3)n2)s1 (centres unmarked) [Example 284, 4-[(4-{2-[(2-methoxy-1-methylethyl)amino]-4-methyl-1,3-thiazol-5-yl}pyrimidin-2-yl)amino]phenol]",1.4

# Same assay, conditions: * HPLC reversed-phase C18, 40° C., mobile phase 0.1% aqueous formic acid and acetonitrile, linear gradient 10% to 95% acetonitrile
row,SMILES,logP
1,"Cc1nc(N(C)C)sc1-c1ccnc(Nc2cccc(Cl)c2)n1 [Example 687, N-(3-chlorophenyl)-4-[2-(dimethylamine)-4-methyl-1,3-thiazol-5-yl]pyrimidine-2-amine]",2.62*
2,"CN(C)c1nc(C(F)(F)F)c(-c2ccnc(Nc3ccc(F)cc3)n2)s1 [Example 777, 4-[2-(dimethylamine)-4-(trifluoromethyl)-1,3-thiazol-5-yl]-N-(4-fluorophenyl)pyrimidine-2-amine]",3.96*
3,"CN(C)c1nc(C(F)(F)F)c(-c2ccnc(Nc3ccc(I)cc3)n2)s1 [Example 778, 4-[2-(dimethylamine)-4-(trifluoromethyl)-1,3-thiazol-5-yl]-N-(4-iodophenyl)pyrimidine-2-amine]",4.88*
4,"COc1cc(Nc2nccc(-c3sc(N(C)C)nc3C(F)(F)F)n2)cc(OC)c1 [Example 707, N-(3,5-dimethoxyphenyl)-4-[2-(dimethylamine)-4-(trifluoromethyl)-1,3-thiazol-5-yl]pyrimidine-2-amine]",3.85*

# Same assay, conditions: HPLC, reversed-phase C 18, EEC Directive 79/831 Annex V.A8; method *: 40° C., 0.1% aqueous formic acid and acetonitrile, linear gradient 10% to 95% acetonitrile
row,SMILES,logP
1,"CNc1nc(C)c(-c2ccnc(Nc3cc(OC)c(OC)c(OC)c3)n2)s1 [Example 313, 4-[4-methyl-2-(methylamine)-1,3-thiazol-5-yl]-N-(3,4,5-trimethoxyphenyl)pyrimidine-2-amine]",1.53*
2,"COc1cc(Nc2nccc(-c3sc(N(C)C)nc3C(F)(F)F)n2)cc(OC)c1OC [Example 291, 4-[2-(dimethylamine)-4-(trifluoromethyl)-1,3-thiazol-5-yl]-N-(3,4,5-trimethoxyphenyl)pyrimidine-2-amine]",3.43*

# Same assay, conditions: logP(HCOOH), HCOOH
row,SMILES,chromatographic logP
1,"Cc1nc(C2CCCCC2)sc1-c1ccnc(Nc2cccc([N+](=O)[O-])c2)n1 [Example 216, 4-(2-cyclohexyl-4-methyl-1,3-thiazol-5-yl)-N-(3-nitrophenyl)pyrimidine-2-amine]",4.63
2,"Cc1nc2c(s1)C(=O)CCC2 [2-Methyl-7-oxo-4,5,6,7-tetrahydrobenzothiazole]",1.08

# Same assay, conditions: logP, * HPLC reversed-phase C18, 40° C., mobile phase 0.1% aqueous formic acid and acetonitrile, linear gradient 10% to 95% acetonitrile
row,SMILES,chromatographic logP
1,"COCCNc1nc(C)c(-c2ccnc(Nc3ccc(F)cc3)n2)s1 [Example 677, N-(4-fluorophenyl)-4-{2-[(2-methoxyethyl)amino]-4-methyl-1,3-thiazol-5-yl}pyrimidine-2-amine]",1.9
2,"Cc1nc(N2CCOCC2)sc1-c1ccnc(Nc2cccc(Cl)c2)n1 [Example 745, N-(3-chlorophenyl)-4-(4-methyl-2-morpholin-4-yl-1,3-thiazol-5-yl)pyrimidine-2-amine]",2.99
3,"COCCNc1nc(C)c(-c2ccnc(Nc3ccc(NS(C)(=O)=O)cc3)n2)s1 [Example 691, N-{4-[(4-{2-[(2-methoxyethyl)amino]-4-methyl-1,3-thiazol-5-yl}pyrimidin-2-yl)amino]phenyl}methanesulphonamide]",1.39
4,"Cc1nc(C(F)F)c(-c2ccnc(Nc3ccc(CNC(=O)OC(C)(C)C)cc3)n2)s1 [Example 758, tert-butyl-[4-({4-[4-(difluoromethyl)-2-methyl-1,3-thiazol-5-yl]pyrimidin-2-yl}amino)benzyl]carbamate]",3.2
5,"Cc1nc(C)c(-c2ccnc(Nc3ccc(N4CCCC4=O)cc3)n2)s1 [Example 749, 1-(4-{[4-(2,4-dimethyl-1,3-thiazol-5-yl)pyrimidin-2-yl]amino}phenyl)pyrrolidin-2-one]",1.99
6,"COCCNc1nc(C)c(-c2ccnc(Nc3ccc(OC)c(Cl)c3)n2)s1 [Example 804, N-(3-chloro-4-methoxyphenyl)-4-{2-[(2-methoxyethyl)amino]-4-methyl-1,3-thiazol-5-yl}pyrimidine-2-amine]",1.96
7,"Cc1nc(C(F)(F)F)c(-c2ccnc(Nc3ccc(N(C)C)c(Cl)c3)n2)s1 [Example 700, 2-chloro-N1,N1-dimethyl-N4-{4-[2-methyl-4-(trifluoromethyl)-1,3-thiazol-5-yl]pyrimidin-2-yl}benzene-1,4-diamine]",2.88
8,"Cc1nc(C(F)F)c(-c2ccnc(Nc3cccc(Cl)c3)n2)s1 [Example 757, N-(3-chlorophenyl)-4-[4-(difluoromethyl)-2-methyl-1,3-thiazol-5-yl]pyrimidine-2-amine]",1.41
9,"Cc1nc(NCC2CCCO2)sc1-c1ccnc(Nc2ccc(N3CCCC3=O)cc2)n1 (centres unmarked) [Example 720, 1-{4-[(4-{4-methyl-2-[(tetrahydrofuran-2-ylmethyl)amino]-1,3-thiazol-5-yl}pyrimidin-2-yl)amino]phenyl}pyrrolidin-2-one]",1.6
10,"COCC(C)Nc1nc(C)c(-c2ccnc(Nc3cccc(NS(C)(=O)=O)c3)n2)s1 (centres unmarked) [Example 570, N-{3-[(4-{2-[(2-methoxy-1-methylethyl)amino]-4-methyl-1,3-thiazol-5-yl}pyrimidin-2-yl)amino]phenyl}methanesulphonamide]",1.57
11,"Cc1nc(C(F)(F)F)c(-c2ccnc(Nc3ccc(F)c(F)c3)n2)s1 [Example 705, N-(3,4-difluorophenyl)-4-[2-methyl-4-(trifluoromethyl)-1,3-thiazol-5-yl]pyrimidine-2-amine]",3.76

# Same assay, conditions: logP, values marked *: HPLC on reversed-phase C 18, 40° C., mobile phase 0.1% aqueous formic acid and acetonitrile, linear gradient 10% to 95% acetonitrile
row,SMILES,chromatographic logP
1,"COCCCNc1nc(C)c(-c2ccnc(Nc3cc(OC)c(OC)c(OC)c3)n2)s1 [Example 866, 4-{2-[(3-methoxypropyl)amino]-4-methyl-1,3-thiazol-5-yl}-N-(3,4,5-trimethoxyphenyl)pyrimidine-2-amine]",1.73
2,"COCCOc1nc(C)c(-c2ccnc(Nc3ccc(N4CCCC4=O)cc3)n2)s1 [Example 917, 1-[4-({4-[2-(2-methoxyethoxy)-4-methyl-1,3-thiazol-5-yl]pyrimidin-2-yl}amino)phenyl]pyrrolidin-2-one]",2.23
3,"Cc1nc(C(C)(C)C)sc1-c1ccnc(Nc2ccccc2)n1 [Example 882, 4-(2-tert-butyl-4-methyl-1,3-thiazol-5-yl)-N-phenylpyrimidine-2-amine]",4.24
4,"COCCOc1nc(C)c(-c2ccnc(Nc3cccc([N+](=O)[O-])c3)n2)s1 [Example 911, 4-[2-(2-methoxyethoxy)-4-methyl-1,3-thiazol-5-yl]-N-(3-nitrophenyl)pyrimidine-2-amine]",3.08
5,"COCCCNc1nc(C)c(-c2ccnc(Nc3cccc(NC(C)=O)c3)n2)s1 [Example 853, N-{3-[(4-{2-[(3-methoxypropyl)amino]-4-methyl-1,3-thiazol-5-yl}pyrimidin-2-yl)amino]phenyl}acetamide]",1.44
6,"COCCCNc1nc(C)c(-c2ccnc(Nc3cccc(N4CCCC4=O)c3)n2)s1 [Example 861, 1-{3-[(4-{2-[(3-methoxypropyl)amino]-4-methyl-1,3-thiazol-5-yl}pyrimidin-2-yl)amino]phenyl}pyrrolidin-2-one]",1.62
7,"Cc1nc(C(C)C)sc1-c1nc(Nc2ccccc2)ncc1Cl [Example 903, 5-chloro-4-(2-isopropyl-4-methyl-1,3-thiazol-5-yl)-N-phenylpyrimidine-2-amine]",4.27
8,"Cc1nc(NCC2CCCO2)sc1-c1ccnc(Nc2ccc(F)cc2F)n1 (centres unmarked) [Example 809, N-(2,4-difluorophenyl)-4-{4-methyl-2-[(tetrahydrofuran-2-ylmethyl)amino]-1,3-thiazol-5-yl}pyrimidine-2-amine]",2.09
